These results are taken from US9796711B2, “Substituted pyrazolo[3,4-b]pyridin-6-carboxylic acids and method of use” (AbbVie S.àr.l., priority 2015, dated 2017).

Experiment [1] has as its target T1, ΔF508-CFTR (Homo sapiens, UniProt P13569, DEL508-508).
T1 construct: host or cells: CFBE41o-, doxycycline-inducible
Nature of the experiment: CFTR cell surface levels using HRP-tagged ΔF508-CFTR expressing CFBE cells, in the presence of a co-corrector. In kind it is cell-based. The following applies: HRP-tagged ΔF508-CFTR expressing CFBE cells, in the presence of 3 μM co-corrector; for EC50: read-out: EC50. An outline of the steps: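 Cells were seeded with 0.5 μg/mL doxycycline and held 68 h at 37 °C. Test compounds plus 3 μM co-corrector (final 0.1% DMSO) were then added for 20 h at 33 °C. Washed cells received HRP substrate, and luminescence was normalized between DMSO and 3 μM co-corrector controls.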

The target in experiment [2] is T1, ΔF508-CFTR. Kind of experiment: CFTR cell surface levels using HRP-tagged ΔF508-CFTR expressing CFBE cells, intrinsic corrector capacity. Type of experiment: cell-based. The following applies: for EC50: read-out: EC50. An outline of the steps: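 Here the cells express ΔF508-CFTR with horseradish peroxidase inserted in extracellular loop 4, so only rescued channel at the surface gives luminescent signal. Compounds act on their own, 20 h at the reduced temperature of 33 °C; values are percent activity relative to DMSO and a 3 μM corrector.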

Setting [3] is: HRP-tagged ΔF508-CFTR expressing CFBE cells, intrinsic corrector capacity (no co-corrector), 33° C., 20 hours.
The mark [4] stands for this setting: HRP-tagged ΔF508-CFTR CFBE41o- cells, compounds alone (intrinsic corrector capacity), 20 hours at 33° C., positive control 3 μM corrector.
Setting [5] is: HRP-tagged ΔF508-CFTR CFBE41o- cells, compounds alone (intrinsic corrector capacity), 20 hours at 33° C.

Molecules are shown by their SMILES.

T1 sequence (P13569 with tags, fused parts or gaps DEL508-508): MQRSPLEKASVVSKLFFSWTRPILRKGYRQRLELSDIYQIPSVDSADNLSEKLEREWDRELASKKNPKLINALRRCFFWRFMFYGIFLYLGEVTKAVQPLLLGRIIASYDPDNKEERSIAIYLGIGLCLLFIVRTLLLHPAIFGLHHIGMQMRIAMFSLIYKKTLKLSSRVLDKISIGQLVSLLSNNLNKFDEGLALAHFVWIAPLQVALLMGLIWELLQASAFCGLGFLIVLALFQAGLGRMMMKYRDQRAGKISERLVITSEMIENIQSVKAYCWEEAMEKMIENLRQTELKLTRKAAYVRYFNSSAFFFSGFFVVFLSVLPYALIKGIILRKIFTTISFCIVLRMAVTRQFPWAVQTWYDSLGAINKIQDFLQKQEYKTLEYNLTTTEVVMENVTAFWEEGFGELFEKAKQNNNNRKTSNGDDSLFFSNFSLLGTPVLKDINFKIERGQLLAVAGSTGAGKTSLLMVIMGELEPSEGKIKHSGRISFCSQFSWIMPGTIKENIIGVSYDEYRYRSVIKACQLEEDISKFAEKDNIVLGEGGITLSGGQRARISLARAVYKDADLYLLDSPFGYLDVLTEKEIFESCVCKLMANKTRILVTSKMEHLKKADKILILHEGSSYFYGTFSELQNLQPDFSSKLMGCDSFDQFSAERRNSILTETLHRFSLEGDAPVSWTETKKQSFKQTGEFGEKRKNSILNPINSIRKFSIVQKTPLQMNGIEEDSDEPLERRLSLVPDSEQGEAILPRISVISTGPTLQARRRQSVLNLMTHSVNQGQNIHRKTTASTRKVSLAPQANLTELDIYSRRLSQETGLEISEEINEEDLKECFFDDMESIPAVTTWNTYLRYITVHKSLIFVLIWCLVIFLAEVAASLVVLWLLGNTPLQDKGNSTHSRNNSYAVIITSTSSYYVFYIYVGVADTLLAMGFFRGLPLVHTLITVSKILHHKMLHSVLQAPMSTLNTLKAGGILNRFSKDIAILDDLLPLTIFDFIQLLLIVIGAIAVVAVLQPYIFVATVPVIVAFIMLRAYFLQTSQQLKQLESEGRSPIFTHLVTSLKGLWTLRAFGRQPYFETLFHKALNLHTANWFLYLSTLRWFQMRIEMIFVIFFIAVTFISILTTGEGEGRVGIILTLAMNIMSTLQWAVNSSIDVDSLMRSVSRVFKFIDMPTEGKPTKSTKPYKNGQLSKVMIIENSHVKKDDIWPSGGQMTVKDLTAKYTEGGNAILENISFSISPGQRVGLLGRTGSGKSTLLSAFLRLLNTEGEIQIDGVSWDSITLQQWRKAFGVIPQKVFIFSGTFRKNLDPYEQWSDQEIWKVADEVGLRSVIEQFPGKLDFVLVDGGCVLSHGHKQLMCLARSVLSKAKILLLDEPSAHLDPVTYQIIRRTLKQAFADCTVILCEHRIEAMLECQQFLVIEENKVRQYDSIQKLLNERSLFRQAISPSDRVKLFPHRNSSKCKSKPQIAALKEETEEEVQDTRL

One may read the EC50 as the concentration that produces a half-maximal response. On to `COC1CN(CC2CCN(c3cc(C(=O)O)nc4c3c(C3CCC3)nn4-c3ccccc3)CC2)C1` [compound 829, 3-cyclobutyl-4-{4-[(3-methoxyazetidin-1-yl)methyl]piperidin-1-yl}-1-phenyl-1H-pyrazolo[3,4-b]pyridine-6-carboxylic acid], for which the “% Activation” value in experiment [1] is recorded as 411.7%; in experiment [2] (setting [3]), 170.7%. The EC50 in experiment [1] worked out at 344 nM; in experiment [2] (setting [3]), 381 nM.
As to `CC(C)c1nn(-c2cccc(N(C)C)c2)c2nc(C(=O)O)cc(-c3ccc(N4CCOCC4)nc3)c12` [compound 85, 1-[3-(dimethylamino)phenyl]-4-[6-(morpholin-4-yl)pyridin-3-yl]-3-(propan-2-yl)-1H-pyrazolo[3,4-b]pyridine-6-carboxylic acid], the “% Activation” value amounted to 504.7% in experiment [1] and 314.6% in experiment [2] (setting [4]). For the same molecule, the values for the half-maximal effective concentration (EC50) in experiment [1] and in experiment [2] (setting [5]) were 702 nM and 920 nM, respectively.
`O=C(O)c1cc(N2CCC(N3CCOCC3)CC2)c2c(C3CCC3)nn(-c3cc(F)cc(F)c3)c2n1` [compound 905, 3-cyclobutyl-1-(3,5-difluorophenyl)-4-[4-(morpholin-4-yl)piperidin-1-yl]-1H-pyrazolo[3,4-b]pyridine-6-carboxylic acid]: in experiment [1], the “% Activation” value came to 466.55% and the concentration for a half-maximal effect (EC50) was found to be 145 nM. In addition, in experiment [2] (setting [3]), the “% Activation” value is listed as 278.8% and the EC50 was found to be 362 nM.
With `CC(C)Oc1nn(-c2ccccc2)c2nc(C(=O)O)cc(-c3ccc(N4CCOCC4)cc3)c12` [compound 390, 4-[4-(morpholin-4-yl)phenyl]-1-phenyl-3-[(propan-2-yl)oxy]-1H-pyrazolo[3,4-b]pyridine-6-carboxylic acid], the entries for the “% Activation” value in experiment [1] and in experiment [2] (setting [4]) were 362% and 177.8%, respectively. Besides, the EC50 came to 272 nM in experiment [1] and 585 nM in experiment [2] (setting [5]).
For `COCC(COC)Oc1cc(C(=O)O)nc2c1c(C1CCC1)nn2-c1ccccc1` [compound 491, 3-cyclobutyl-4-[(1,3-dimethoxypropan-2-yl)oxy]-1-phenyl-1H-pyrazolo[3,4-b]pyridine-6-carboxylic acid], in experiment [1], the “% Activation” value stood at 256.5% and the 50% effective concentration (EC50) is 966 nM. Also, in experiment [2] (setting [3]), the “% Activation” value stood at 82.97% and the EC50 is 2280 nM.
With `CC1(COc2cc(C(=O)O)nc3c2c(C2CCC2)nn3-c2ccccc2)COC1` [compound 490, 3-cyclobutyl-4-[(3-methyloxetan-3-yl)methoxy]-1-phenyl-1H-pyrazolo[3,4-b]pyridine-6-carboxylic acid], the “% Activation” value in experiment [1] was found to be 311.1%; in experiment [2] (setting [3]) it was 144.95%. For the same molecule, the figures for the EC50 in experiment [1] and in experiment [2] (setting [3]) were 296 nM and 400 nM, respectively.
On to `O=C(O)c1cc(N2CCC(F)CC2)c2c(C3CCC3)nn(-c3ccccc3)c2n1` [compound 444, 3-cyclobutyl-4-(4-fluoropiperidin-1-yl)-1-phenyl-1H-pyrazolo[3,4-b]pyridine-6-carboxylic acid], for which, in experiment [1], the “% Activation” value is recorded as 282.8% and the EC50 amounted to 543 nM. Also, in experiment [2] (setting [3]), the “% Activation” value was determined as 111.15% and the 50% effective concentration (EC50) stood at 1110 nM.
Turning to `CC(=O)N1CCC2CN(c3cc(C(=O)O)nc4c3c(C(C)C)nn4-c3cccc(C)c3)CCC21` (centres unmarked) [compound 255, 4-(1-acetyloctahydro-5H-pyrrolo[3,2-c]pyridin-5-yl)-1-(3-methylphenyl)-3-(propan-2-yl)-1H-pyrazolo[3,4-b]pyridine-6-carboxylic acid], the “% Activation” value in experiment [1] amounted to 302.97%; in experiment [2] (setting [4]), 120.77%. In addition, the EC50 turned out to be 294 nM in experiment [1] and 442 nM in experiment [2] (setting [5]).
On the same counts, the results for `Cc1cccc(-n2nc(C(C)C)c3c(-c4ccc(N5CCC(C#N)CC5)nc4)cc(C(=O)O)nc32)c1` [compound 175, 4-[6-(4-cyanopiperidin-1-yl)pyridin-3-yl]-1-(3-methylphenyl)-3-(propan-2-yl)-1H-pyrazolo[3,4-b]pyridine-6-carboxylic acid] are 522.6%, 321.67%, 532 nM and 809 nM.
On to `O=C(O)c1cc(OCCC2CC(F)(F)C2)c2c(C3CCC3)nn(-c3ccccc3)c2n1` [compound 477, 3-cyclobutyl-4-[2-(3,3-difluorocyclobutyl)ethoxy]-1-phenyl-1H-pyrazolo[3,4-b]pyridine-6-carboxylic acid], for which, in experiment [1], the “% Activation” value is listed as 266.3% and the EC50 was 501 nM. For the same molecule, in experiment [2] (setting [3]), the “% Activation” value is on record as 97.78% and the EC50 turned out to be 1020 nM.
For the molecule `Cc1nn(-c2cccc(N(C)C)c2)c2nc(C(=O)O)cc(-c3cnc(N4CCOCC4)nc3)c12` [compound 90, 1-[3-(dimethylamino)phenyl]-3-methyl-4-[2-(morpholin-4-yl)pyrimidin-5-yl]-1H-pyrazolo[3,4-b]pyridine-6-carboxylic acid], the “% Activation” value came out at 367.15% in experiment [1] and 169.65% in experiment [2] (setting [4]). Besides, the values for the EC50 in experiment [1] and in experiment [2] (setting [5]) were 883 nM and 1040 nM, respectively.
Regarding `Cc1nn(-c2ccccc2)c2nc(C(=O)O)cc(OC[C@@H](F)C3CCN(C)CC3)c12` [compound 379, 4-[(2S)-2-fluoro-2-(1-methylpiperidin-4-yl)ethoxy]-3-methyl-1-phenyl-1H-pyrazolo[3,4-b]pyridine-6-carboxylic acid], the results for the “% Activation” value in experiment [1] and in experiment [2] (setting [4]) were 128.5% and 4.874%, respectively. For the same molecule, the EC50 in experiment [1] and in experiment [2] (setting [5]) was 5010 nM in each case.
In the case of `COC(=O)N1CC(c2nn(-c3ccccc3)c3nc(C(=O)O)cc(-c4ccc(N5CCOCC5)cc4)c23)C1` [compound 86, 3-[1-(methoxycarbonyl)azetidin-3-yl]-4-[4-(morpholin-4-yl)phenyl]-1-phenyl-1H-pyrazolo[3,4-b]pyridine-6-carboxylic acid], the “% Activation” value is on record as 300.25% in experiment [1] and 129.75% in experiment [2] (setting [4]). Moreover, the values for the EC50 in experiment [1] and in experiment [2] (setting [5]) were 2550 nM and 3340 nM, respectively.
As to `Cc1nn(-c2ccccc2)c2nc(C(=O)O)cc(-c3ccc(N4C[C@@H]5C[C@H]4CO5)cc3)c12` [compound 127, 3-methyl-4-{4-[(1S,4S)-2-oxa-5-azabicyclo[2.2.1]heptan-5-yl]phenyl}-1-phenyl-1H-pyrazolo[3,4-b]pyridine-6-carboxylic acid], the “% Activation” value amounted to 401.3% in experiment [1] and 221.4% in experiment [2] (setting [4]). Also, the half-maximal effective concentration (EC50) came to 719 nM in experiment [1] and 1790 nM in experiment [2] (setting [5]).
`CN1CCN(CCCOc2cc(C(=O)O)nc3c2c(C2CCC2)nn3-c2ccccc2)CC1` [compound 634, 3-cyclobutyl-4-[3-(4-methylpiperazin-1-yl)propoxy]-1-phenyl-1H-pyrazolo[3,4-b]pyridine-6-carboxylic acid]: the “% Activation” value in experiment [1] is recorded as 294.7%; in experiment [2] (setting [3]), 122.2%. The EC50 in experiment [1] turned out to be 2570 nM; in experiment [2] (setting [3]), 3330 nM.
For the molecule `CC(C)N1CCC2CN(c3cc(C(=O)O)nc4c3c(C3CCC3)nn4-c3ccc(F)cc3)CCC21` (centres unmarked) [compound 900, 3-cyclobutyl-1-(4-fluorophenyl)-4-[1-(propan-2-yl)octahydro-5H-pyrrolo[3,2-c]pyridin-5-yl]-1H-pyrazolo[3,4-b]pyridine-6-carboxylic acid], in experiment [1], the “% Activation” value was found to be 389.73% and the EC50 was 216 nM. In experiment [2] (setting [3]), the “% Activation” value worked out at 183.97% and the EC50 was found to be 433 nM.
The matching figures for `CN(C)CC(CN(C)C)Oc1cc(C(=O)O)nc2c1c(C1CCC1)nn2-c1ccccc1` [compound 638, 4-{[1,3-bis(dimethylamino)propan-2-yl]oxy}-3-cyclobutyl-1-phenyl-1H-pyrazolo[3,4-b]pyridine-6-carboxylic acid]: 175.15%, 6660 nM, 24.93% and greater than 10000 nM.
The matching figures for `CC(=O)N1CC(Oc2nn(-c3ccccc3)c3nc(C(=O)O)cc(-c4ccc(N5CCOCC5)cc4)c23)C1` [compound 497, 3-[(1-acetylazetidin-3-yl)oxy]-4-[4-(morpholin-4-yl)phenyl]-1-phenyl-1H-pyrazolo[3,4-b]pyridine-6-carboxylic acid]: 157.55%, 3340 nM, 24.76% and greater than 10000 nM.
On to `CC(C)c1nn(-c2cncc(N3CCOCC3)c2)c2nc(C(=O)O)cc(-c3ccc(N4CCOCC4)cc3)c12` [compound 211, 4-[4-(morpholin-4-yl)phenyl]-1-[5-(morpholin-4-yl)pyridin-3-yl]-3-(propan-2-yl)-1H-pyrazolo[3,4-b]pyridine-6-carboxylic acid], for which the results for the “% Activation” value in experiment [1] and in experiment [2] (setting [4]) were 289.75% and 94.07%, respectively. Moreover, the EC50 was found to be 1090 nM in experiment [1] and 2170 nM in experiment [2] (setting [5]).
The matching figures for `Cc1cccc(-n2nc(C(C)C)c3c(N4CCCC4)cc(C(=O)O)nc32)c1` [compound 173, 1-(3-methylphenyl)-3-(propan-2-yl)-4-(pyrrolidin-1-yl)-1H-pyrazolo[3,4-b]pyridine-6-carboxylic acid]: 380.52%, 182.82%, 2530 nM and 2950 nM.
